Consider 37 compounds from BindingDB's records for patent US20240182487 (Blossomhill Therapeutics, 2024).

Common to all, as to assay: Biochemical Assay
For test [1], the target named is Epidermal growth factor receptor [L858R,T790M,C797S] (Homo sapiens, UniProt P00533, C797S/L858R/T790M). The protocol: (§1) Biochemical Assays for Inhibition of Wild-Type and Mutant EGFRs.The inhibitory activities against EGFR WT, EGFR Δ752-759 mutant, EGFR Δ746-750/T790M mutant, EGFR Δ746-750/C797S mutant, EGFR Δ746-750/T790M/C797S mutant. […] Briefly, specific kinase/substrate pairs along with required cofactors were prepared in reaction buffer; 20 mM Hepes pH 7.5, 10 mM MgCl2, 1 mM EGTA, 0.02% Brij35, 0.02 mg/ml BSA, 0.1 mM Na3VO4, 2 mM DTT, 1% DMSO. Compounds were delivered into the reaction, followed 20 minutes later by addition of a mixture of ATP (Sigma, St. Louis MO) and 33P ATP (Perkin Elmer, Waltham MA) to a final concentration of 10 μM. Reactions were carried out at room temperature for 120 min, followed by spotting of the reactions onto P81 ion exchange filter paper (Whatman Inc., Piscataway, NJ). Unbound phosphate was removed by extensive washing of filters in 0.75% phosphoric acid.
Chain of Epidermal growth factor receptor [L858R,T790M,C797S] (P00533 25-1210 T790M/C797S/L858R limits assumed): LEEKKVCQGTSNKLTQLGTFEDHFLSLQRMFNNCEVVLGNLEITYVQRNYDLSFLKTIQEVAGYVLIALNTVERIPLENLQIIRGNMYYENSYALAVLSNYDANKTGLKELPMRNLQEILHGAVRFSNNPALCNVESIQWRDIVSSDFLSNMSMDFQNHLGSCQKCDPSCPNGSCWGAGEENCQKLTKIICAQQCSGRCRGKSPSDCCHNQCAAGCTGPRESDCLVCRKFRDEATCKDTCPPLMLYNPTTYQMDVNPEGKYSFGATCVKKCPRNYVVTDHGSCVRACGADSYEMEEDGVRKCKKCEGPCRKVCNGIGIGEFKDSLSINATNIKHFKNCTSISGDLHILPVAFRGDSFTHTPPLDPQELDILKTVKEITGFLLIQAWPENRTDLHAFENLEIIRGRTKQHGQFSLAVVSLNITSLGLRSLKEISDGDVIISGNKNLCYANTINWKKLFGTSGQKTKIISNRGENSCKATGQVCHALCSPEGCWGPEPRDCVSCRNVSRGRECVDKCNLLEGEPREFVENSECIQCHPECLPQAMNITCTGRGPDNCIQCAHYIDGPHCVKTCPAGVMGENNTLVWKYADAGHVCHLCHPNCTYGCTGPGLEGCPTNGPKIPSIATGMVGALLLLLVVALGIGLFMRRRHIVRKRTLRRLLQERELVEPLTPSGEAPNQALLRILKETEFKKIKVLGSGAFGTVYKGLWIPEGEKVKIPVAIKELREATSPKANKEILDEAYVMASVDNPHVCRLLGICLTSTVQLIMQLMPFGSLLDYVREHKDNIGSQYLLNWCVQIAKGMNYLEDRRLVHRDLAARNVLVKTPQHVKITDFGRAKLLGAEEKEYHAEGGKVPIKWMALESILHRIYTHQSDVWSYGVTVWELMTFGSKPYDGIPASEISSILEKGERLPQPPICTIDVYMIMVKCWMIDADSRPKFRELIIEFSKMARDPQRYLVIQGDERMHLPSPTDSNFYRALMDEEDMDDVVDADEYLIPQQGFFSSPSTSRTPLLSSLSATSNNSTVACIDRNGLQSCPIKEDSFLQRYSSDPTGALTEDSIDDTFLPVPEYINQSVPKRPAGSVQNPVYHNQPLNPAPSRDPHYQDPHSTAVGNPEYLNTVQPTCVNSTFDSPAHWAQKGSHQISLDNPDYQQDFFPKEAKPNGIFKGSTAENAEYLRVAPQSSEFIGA

Test [2] deals with Epidermal growth factor receptor [T790M,L858R] (Homo sapiens, UniProt P00533, L858R/T790M). On the procedure: as §1
Chain of Epidermal growth factor receptor [T790M,L858R] (P00533 25-1210 T790M/L858R limits assumed): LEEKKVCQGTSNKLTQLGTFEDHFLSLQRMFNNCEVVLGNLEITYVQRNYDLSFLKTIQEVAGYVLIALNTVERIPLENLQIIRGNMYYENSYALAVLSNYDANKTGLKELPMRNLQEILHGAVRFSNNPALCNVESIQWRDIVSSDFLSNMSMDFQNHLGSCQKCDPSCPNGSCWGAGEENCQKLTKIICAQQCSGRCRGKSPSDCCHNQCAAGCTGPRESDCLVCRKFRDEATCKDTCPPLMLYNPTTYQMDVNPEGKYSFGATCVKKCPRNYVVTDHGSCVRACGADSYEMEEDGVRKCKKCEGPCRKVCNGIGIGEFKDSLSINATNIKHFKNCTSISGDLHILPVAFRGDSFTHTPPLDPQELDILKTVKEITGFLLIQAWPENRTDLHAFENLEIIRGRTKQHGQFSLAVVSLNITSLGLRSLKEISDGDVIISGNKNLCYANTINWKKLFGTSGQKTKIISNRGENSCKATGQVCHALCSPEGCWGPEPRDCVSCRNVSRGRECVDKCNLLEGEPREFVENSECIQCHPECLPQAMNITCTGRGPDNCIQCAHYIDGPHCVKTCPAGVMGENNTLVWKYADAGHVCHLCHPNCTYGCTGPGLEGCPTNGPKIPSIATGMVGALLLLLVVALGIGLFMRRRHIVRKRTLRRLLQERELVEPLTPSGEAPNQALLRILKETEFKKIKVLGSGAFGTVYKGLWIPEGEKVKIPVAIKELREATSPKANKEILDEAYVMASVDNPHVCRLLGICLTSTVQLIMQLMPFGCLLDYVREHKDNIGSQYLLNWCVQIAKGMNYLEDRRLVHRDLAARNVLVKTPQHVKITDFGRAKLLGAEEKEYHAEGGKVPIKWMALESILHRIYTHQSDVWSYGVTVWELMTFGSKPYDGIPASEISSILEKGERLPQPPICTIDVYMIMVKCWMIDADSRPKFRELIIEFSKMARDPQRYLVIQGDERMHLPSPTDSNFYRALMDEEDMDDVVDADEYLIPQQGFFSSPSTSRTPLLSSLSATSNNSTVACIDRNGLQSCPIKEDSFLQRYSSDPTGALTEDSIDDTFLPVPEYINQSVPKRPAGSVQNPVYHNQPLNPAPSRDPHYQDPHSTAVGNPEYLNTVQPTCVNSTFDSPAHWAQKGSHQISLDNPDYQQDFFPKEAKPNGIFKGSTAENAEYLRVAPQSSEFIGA
Test [3] has as its target Epidermal growth factor receptor (Homo sapiens, UniProt P00533). On the procedure: as §1
The target in test [4] is Epidermal growth factor receptor [L858R,C797S] (Human, UniProt P00533, C797S/L858R). On the procedure:
as §1

The target in test [5] is Epidermal growth factor receptor [L858R] (Homo sapiens, UniProt P00533, L858R). The protocol:
as §1

Bounds are passed on as bounds.

Chain of Epidermal growth factor receptor [L858R,C797S] (P00533 25-1210 C797S/L858R limits assumed): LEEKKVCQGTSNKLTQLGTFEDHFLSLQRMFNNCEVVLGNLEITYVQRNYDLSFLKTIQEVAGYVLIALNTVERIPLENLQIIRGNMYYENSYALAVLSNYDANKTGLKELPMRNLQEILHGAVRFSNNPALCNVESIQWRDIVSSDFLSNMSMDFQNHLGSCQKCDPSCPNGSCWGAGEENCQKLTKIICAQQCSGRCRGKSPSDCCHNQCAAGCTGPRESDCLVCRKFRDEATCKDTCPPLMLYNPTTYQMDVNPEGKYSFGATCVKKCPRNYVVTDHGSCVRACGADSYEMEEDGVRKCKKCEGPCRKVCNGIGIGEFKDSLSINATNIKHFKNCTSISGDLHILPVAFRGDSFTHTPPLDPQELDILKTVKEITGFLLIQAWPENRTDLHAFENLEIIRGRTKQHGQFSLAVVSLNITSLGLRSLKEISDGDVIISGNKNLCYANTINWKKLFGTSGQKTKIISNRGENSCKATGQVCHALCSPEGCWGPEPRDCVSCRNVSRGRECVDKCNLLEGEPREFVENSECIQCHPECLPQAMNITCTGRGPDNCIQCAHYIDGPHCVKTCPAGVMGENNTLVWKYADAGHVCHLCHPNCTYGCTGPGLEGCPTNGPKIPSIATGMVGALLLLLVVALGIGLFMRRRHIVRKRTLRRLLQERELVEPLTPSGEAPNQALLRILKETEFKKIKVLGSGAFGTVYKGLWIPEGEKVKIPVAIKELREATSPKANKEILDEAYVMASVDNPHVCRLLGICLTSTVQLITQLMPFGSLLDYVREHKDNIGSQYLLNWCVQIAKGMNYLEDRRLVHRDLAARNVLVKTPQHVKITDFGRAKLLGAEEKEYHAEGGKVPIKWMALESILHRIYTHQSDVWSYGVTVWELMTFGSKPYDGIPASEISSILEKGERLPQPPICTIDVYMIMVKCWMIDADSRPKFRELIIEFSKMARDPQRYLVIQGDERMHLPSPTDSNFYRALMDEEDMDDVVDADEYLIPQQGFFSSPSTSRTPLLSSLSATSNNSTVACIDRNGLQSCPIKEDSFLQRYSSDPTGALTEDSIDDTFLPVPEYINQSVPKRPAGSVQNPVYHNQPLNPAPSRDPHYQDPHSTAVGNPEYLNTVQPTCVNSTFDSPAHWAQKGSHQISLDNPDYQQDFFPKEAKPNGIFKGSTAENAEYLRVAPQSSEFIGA
Chain of Epidermal growth factor receptor (P00533 whole entry): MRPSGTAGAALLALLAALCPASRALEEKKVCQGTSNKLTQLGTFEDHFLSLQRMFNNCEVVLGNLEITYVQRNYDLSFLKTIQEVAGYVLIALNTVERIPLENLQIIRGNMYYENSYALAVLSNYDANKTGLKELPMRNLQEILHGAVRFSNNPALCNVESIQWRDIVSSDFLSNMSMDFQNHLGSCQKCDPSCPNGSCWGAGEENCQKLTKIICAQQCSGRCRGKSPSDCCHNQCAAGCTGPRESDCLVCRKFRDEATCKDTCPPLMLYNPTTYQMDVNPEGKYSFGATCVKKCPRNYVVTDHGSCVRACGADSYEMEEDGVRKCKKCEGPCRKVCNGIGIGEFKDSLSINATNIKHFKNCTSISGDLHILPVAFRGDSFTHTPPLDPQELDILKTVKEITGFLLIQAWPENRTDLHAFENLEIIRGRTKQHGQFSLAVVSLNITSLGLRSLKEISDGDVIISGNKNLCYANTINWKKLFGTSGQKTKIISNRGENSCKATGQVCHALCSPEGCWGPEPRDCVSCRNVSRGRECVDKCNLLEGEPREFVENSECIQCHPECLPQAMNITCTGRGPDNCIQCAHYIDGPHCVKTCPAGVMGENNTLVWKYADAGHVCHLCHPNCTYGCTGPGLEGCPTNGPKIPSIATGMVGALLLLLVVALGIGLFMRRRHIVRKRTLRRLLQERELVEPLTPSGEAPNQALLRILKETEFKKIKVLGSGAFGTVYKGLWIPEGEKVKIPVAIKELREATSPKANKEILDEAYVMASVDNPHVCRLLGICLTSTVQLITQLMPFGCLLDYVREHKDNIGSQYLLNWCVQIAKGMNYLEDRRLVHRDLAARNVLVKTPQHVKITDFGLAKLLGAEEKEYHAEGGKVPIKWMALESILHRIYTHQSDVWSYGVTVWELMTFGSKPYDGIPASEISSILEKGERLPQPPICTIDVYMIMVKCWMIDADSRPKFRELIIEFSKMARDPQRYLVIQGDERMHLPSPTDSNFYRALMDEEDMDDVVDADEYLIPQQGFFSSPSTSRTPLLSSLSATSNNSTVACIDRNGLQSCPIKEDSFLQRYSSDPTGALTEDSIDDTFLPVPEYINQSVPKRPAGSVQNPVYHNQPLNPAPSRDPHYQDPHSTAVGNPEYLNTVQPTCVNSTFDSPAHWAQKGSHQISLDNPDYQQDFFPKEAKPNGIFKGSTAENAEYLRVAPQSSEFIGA

One may read the IC50 as the concentration needed to halve the response being measured. In test [1], `COC(=O)c1ccc2c(c1)OCCOCc1c(cnn1C)-c1cc3c(n[nH]c3cn1)/C=C/2` [US20240182487, Compound 69] gave an IC50 of 98.3 nM.
With `CN1CCOCCN(c2ccc(F)c(Cl)c2)c2cc3c(n[nH]c3cn2)/C=C/c2cn(C)nc2C1=O` [US20240182487, Compound 99], the IC50 was more than 10000 nM in test [2], 33.5 nM in test [3], 50.2 nM in test [4] and 25.5 nM in test [5].
With `CCNC(=O)c1ccc2c(c1)OCCOCc1c(cnn1C)-c1cc3c(n[nH]c3cn1)/C=C/2` [US20240182487, Compound 84], the IC50 in test [1] turned out to be 160 nM; in test [3] it was 884 nM; in test [5], 433 nM.
`COC(=O)c1ccc2c(c1)/C=C/c1n[nH]c3cnc(cc13)-c1cnn(C)c1COCCO2` [US20240182487, Compound 75]: the values for the IC50 in test [1], in test [3] and in test [5] were 184 nM, 938 nM and 165 nM, respectively.
Consider `CN1CC[C@H](NC(=O)c2ccc3c(c2)OCCCOc2c(cnn2C)-c2cc4c(n[nH]c4cn2)/C=C/3)C1` [US20240182487, Compound 88], for which the IC50 was 10.3 nM in test [1], 19.3 nM in test [3] and 4.1 nM in test [5].
Regarding `CN1CC(NC(=O)c2ccc3c(c2)OCCCOc2c(cnn2C)-c2cc4c(n[nH]c4cn2)/C=C/3)C1` [US20240182487, Compound 83], the results for the IC50 in test [1], in test [3] and in test [5] were 13.8 nM, 11.2 nM and 6 nM, respectively.
As for `COC(=O)c1ccc2c(c1)OCCCOc1c(cnn1C)-c1cc3c(n[nH]c3cn1)/C=C/2` [US20240182487, Compound 67], the values for the IC50 in test [1], in test [3] and in test [5] were 112 nM, 1000 nM and 1720 nM, respectively.
In the case of `CN(C)CCNC(=O)c1ccc2c(c1)/C=C/c1n[nH]c3cnc(cc13)-c1cnn(C)c1COCCO2` [US20240182487, Compound 90], the IC50 in test [1] was 8.6 nM; in test [3], 73.7 nM; in test [5] it was 22.2 nM.
`Cc1ccc2c(n1)/C=C/c1n[nH]c3cnc(nc13)-c1cnn(C)c1C(C)OCCO2` (configuration not stated) [US20240182487, Compound 65]: the IC50 in test [1] was found to be 91.2 nM; in test [2], 23.4 nM; in test [3], 438 nM; in test [5], 140 nM.
For the compound `CN(C)CCCNC(=O)c1ccc2c(c1)/C=C/c1n[nH]c3cnc(cc13)-c1cnn(C)c1OCCCO2` [US20240182487, Compound 70], the results for the IC50 in test [1], in test [3] and in test [5] were 5.3 nM, 5.9 nM and 2.2 nM, respectively.
In the case of `CN1CCC(CNC(=O)c2ccc3c(c2)/C=C/c2n[nH]c4cnc(cc24)-c2cnn(C)c2OCCCO3)CC1` [US20240182487, Compound 76], the IC50 is 3.1 nM in test [1] and 1.2 nM in test [5].
Take `Cc1nc2cc3c(n[nH]c13)/C=C/c1cc(F)ccc1OCCCOc1c-2cnn1C` [US20240182487, Compound 98]: the IC50 in test [1] was 192 nM; in test [3], 1240 nM; in test [5], 1110 nM.
For `CCc1c2c(nn1C)C(=O)N(C)CCOc1cnc(OC)cc1-c1cc3c(n[nH]c3cn1)/C=C/2` [US20240182487, Compound 66], the IC50 in test [5] is more than 10000 nM.
Take `CN1CCC(CNC(=O)c2ccc3c(c2)/C=C/c2n[nH]c4cnc(cc24)-c2cnn(C)c2COCCO3)CC1` [US20240182487, Compound 94]: the IC50 in test [1] came out at 9.9 nM; in test [3], 101 nM; in test [5] it was 9.2 nM.
As to `COC(=O)c1ccc2c(c1)/C=C/c1n[nH]c3cnc(cc13)-c1cnn(C)c1OCCCO2` [US20240182487, Compound 68], the results for the IC50 in test [1] and in test [3] were 16.6 nM and 159 nM, respectively.
As to `CN1CCC(NC(=O)c2ccc3c(c2)/C=C/c2n[nH]c4cnc(cc24)-c2cnn(C)c2OCCCO3)CC1` [US20240182487, Compound 97], the 50% inhibitory concentration (IC50) was 3.4 nM in test [1], 3.1 nM in test [3] and 4.5 nM in test [5].
`CN(C)CCCNC(=O)c1ccc2c(c1)/C=C/c1n[nH]c3cnc(cc13)-c1cnn(C)c1COCCO2` [US20240182487, Compound 91]: the figures for the half-inhibitory concentration (IC50) in test [1], in test [3] and in test [5] were 10.2 nM, 97.2 nM and 28.2 nM, respectively.
On the same counts, the results for `Cn1ncc2c1OCCCOc1cc(C(=O)O)ccc1/C=C/c1n[nH]c3cnc-2cc13` [US20240182487, Compound 73] are 220 nM, 88.6 nM and 39 nM.
Turning to `CN(C)CCNC(=O)c1ccc2c(c1)OCCCOc1c(cnn1C)-c1cc3c(n[nH]c3cn1)/C=C/2` [US20240182487, Compound 74], the IC50 in test [1] was 8.3 nM; in test [3] it was 5.7 nM; in test [5] it was 2.8 nM.
Take `CN1CC[C@@H](NC(=O)c2ccc3c(c2)OCCOCc2c(cnn2C)-c2cc4c(n[nH]c4cn2)/C=C/3)C1` [US20240182487, Compound 87]: the IC50 amounted to 17.2 nM in test [1], 80.1 nM in test [3] and 16.3 nM in test [5].
As to `CN1CCN(C(=O)c2ccc3c(c2)/C=C/c2n[nH]c4cnc(cc24)-c2cnn(C)c2COCCO3)CC1` [US20240182487, Compound 96], the results for the IC50 in test [1], in test [3] and in test [5] were 343 nM, 586 nM and 470 nM, respectively.
`CN1CCC(NC(=O)c2ccc3c(c2)OCCOCc2c(cnn2C)-c2cc4c(n[nH]c4cn2)/C=C/3)CC1` [US20240182487, Compound 85]: the IC50 in test [1] was found to be 31 nM; in test [3], 140 nM; in test [5] it was 40.7 nM.
`CCc1nn(C)c2c1/C=C/c1n[nH]c3cnc(cc13)-c1cc(F)ccc1OCCN(C)C2=O` [US20240182487, Compound 62]: the IC50 in test [1] worked out at 32.4 nM; in test [2] it was 36.3 nM; in test [3], 306 nM; in test [4] it was 104 nM; in test [5], 136 nM.
Turning to `CN1CCC(NC(=O)c2ccc3c(c2)OCCCOc2c(cnn2C)-c2cc4c(n[nH]c4cn2)/C=C/3)CC1` [US20240182487, Compound 78], the values for the IC50 in test [1], in test [3] and in test [5] were 10.6 nM, 6.2 nM and 2.9 nM, respectively.
With `CNC(=O)c1ccc2c(c1)/C=C/c1n[nH]c3cnc(cc13)-c1cnn(C)c1OCCCO2` [US20240182487, Compound 86], the IC50 worked out at 8.8 nM in test [1], 24.1 nM in test [3] and 4.9 nM in test [5].
On the same counts, the results for `Cc1ccc2c(n1)/C=C/c1n[nH]c3cnc(cc13)-c1cnn(C)c1C(C)OCCO2` (configuration not stated) [US20240182487, Compound 95] are 35 nM, 91.6 nM and 74.9 nM.
Regarding `Cn1ncc2c1OCCCOc1ccc(F)cc1/C=C/c1n[nH]c3cnc-2cc13` [US20240182487, Compound 100], the IC50 in test [1] amounted to 27.5 nM; in test [3], 176 nM; in test [5], 13.9 nM.
On the same counts, the results for `CN1CC[C@@H](NC(=O)c2ccc3c(c2)OCCCOc2c(cnn2C)-c2cc4c(n[nH]c4cn2)/C=C/3)C1` [US20240182487, Compound 82] are 12 nM, 9.8 nM and 5.4 nM.
`CC(C)NC(=O)c1ccc2c(c1)OCCCOc1c(cnn1C)-c1cc3c(n[nH]c3cn1)/C=C/2` [US20240182487, Compound 77]: the IC50 in test [1] amounted to 172 nM; in test [5], 57.9 nM.
`CCc1c2c(nn1C)C(=O)N(C)CCCOc1cnc(OC)cc1-c1cc3c(n[nH]c3cn1)/C=C/2` [US20240182487, Compound 64] had an IC50 in test [5] of more than 10000 nM.
As for `CN1CCC(NC(=O)c2ccc3c(c2)/C=C/c2n[nH]c4cnc(cc24)-c2cnn(C)c2COCCO3)CC1` [US20240182487, Compound 93], the values for the IC50 in test [1], in test [3] and in test [5] were 4.2 nM, 55.8 nM and 7.2 nM, respectively.
On the same counts, the results for `Cn1ncc2c1OCCCOc1ccc(C(=O)N3CCCC3)cc1/C=C/c1n[nH]c3cnc-2cc13` [US20240182487, Compound 72] are 64.7 nM, 48.7 nM and 23.7 nM.
`CCNC(=O)c1ccc2c(c1)/C=C/c1n[nH]c3cnc(cc13)-c1cnn(C)c1COCCO2` [US20240182487, Compound 89]: the figures for the IC50 in test [3] and in test [5] were 158 nM and 32 nM, respectively.
`Cn1ncc2c1COCCOc1ccc(C(=O)O)cc1/C=C/c1n[nH]c3cnc-2cc13` [US20240182487, Compound 92]: the IC50 in test [1] is 55.5 nM; in test [3], 271 nM; in test [5], 66.4 nM.
For `Cn1ncc2c1COCCOc1ccccc1/C=C/c1n[nH]c3cnc-2cc13` [US20240182487, Compound 63], the IC50 in test [1] worked out at 8.8 nM; in test [2], 5.8 nM; in test [3], 98.4 nM; in test [4] it was 61.9 nM; in test [5] it was 50 nM.
Take `Cn1ncc2c1COCCOc1ccccc1/C=C/c1n[nH]c3cnc-2nc13` [US20240182487, Compound 16]: the IC50 in test [1] is 263 nM; in test [2], 168 nM; in test [3], 551 nM; in test [4], 481 nM; in test [5] it was 350 nM.
In test [1], `CCc1c2c(nn1C)C(=O)N(C)CCOc1c[nH]c(=O)cc1-c1cc3c(n[nH]c3cn1)/C=C/2` [US20240182487, Compound 38] had an IC50 of 1130 nM.
